Laboratory results from US20220071932A1, “Compositions and Methods Against Stress-Induced Affective Disorders and Their Associated Symptoms” (The Trustees of Columbia University in the City of New York, priority 2019, published 2022).

How the values were obtained:
129S6/SvEv mice = assay: Open field (OF); assay type: in vivo; details: for Open Field, Distance Travelled Min 1 (cm), p (Fisher's LSD) / Open Field, Distance Travelled Min 2 (cm), p (Fisher's LSD): cohort 5 min before re-exposure 1, FIG. 9L
Experimental: The OF assay was administered as previously described (47). Briefly, motor activity was quantified in 4 Plexiglas open field boxes 43×43 cm^2 (MED Associates, Georgia, Vt.). Two sets of 16 pulse-modulated infrared photobeams on opposite walls 2.5-cm apart recorded x-y ambulatory movements. Activity chambers were computer interfaced for data sampling at 100-ms resolution. The computer defined grid lines that dividing center and surround regions, with the center square consisting of four lines 11 cm from the wall.

[1] = test system: depressive symptoms in patients; details: subanesthetic dose; patients; cited from earlier work
c-fos = c-fos immunohistochemistry in hippocampus after CFC re-exposure; assay type: in vivo, mice; details: one week prior to CFC, sacrificed one hour after re-exposure; (R,S)-ketamine 30 mg/kg, FENM 20 mg/kg; vs saline
Experimental: Immunohistochemistry was performed as previously described (46). Mice were deeply anesthetized, and brains were fixed and extracted using transcardial perfusion. For c-fos immunohistochemistry, floating sections were used. Sections were first rinsed three times in 1×PBS and then blocked in 1×PBS with 0.5% Triton X-100 and 10% NDS for 2 hours at room temperature (RT). Incubation with primary antibodies was performed at 4° C. overnight (rabbit anti-c-fos, 1:5000, SySy, Göettingen, Germany, 226 003) in 1×PBS with 0.5% Triton X-100. Sections were then washed three times in 1×PBS and incubated with secondary antibody (Alexa 647 anti-rabbit, 1:500, Thermo Fisher Scientific, Waltham, Mass. A32733) for 2 hours at RT. Sections were then washed three times in 1×PBS, mounted on slides, and coverslipped with ProLong Gold (Invitrogen, Carlsbad, Calif.).
Fluorescent confocal micrographs were captured with a Leica TCS SPE-II confocal microscope with LAS X software. Bilateral hippocampal sections were imaged throughout the rostro-caudal axis of the HPC using a 20× objective. Identification of hippocampal regions involved acquiring 6 dorsal and ventral sections per mouse brain slice at 20×. […]
An investigator blind to treatment groups used FIJI software to count c-fos^+ immunoreactive cells in the DG, CA3, and CA1 throughout the entire rostrocaudal axis of the HPC. Cells were counted bilaterally. […]

NMDARs = details: ex vivo autoradiography and immunohistochemical staining; cited from earlier work
NMDAR = details: relative to (R,S)-ketamine; cited from earlier work
[2] = 1 week prior to CFC, (R,S)-ketamine 30 mg/kg, FENM 10, 20 or 30 mg/kg, vs saline
[3] = 5 min prior to CFC, (R,S)-ketamine 30 mg/kg, FENM 20 mg/kg, vs saline
[4] = Fisher's PLSD after RMANOVA, drug 5 minutes after stress, FENM 20 mg/kg, (R,S)-ketamine 30 mg/kg, FIG. 3L
[5] = Fisher's PLSD, drug 5 minutes after stress, FENM 20 mg/kg, (R,S)-ketamine 30 mg/kg
[6] = Saline vs. (R,S)-ketamine (30 mg/kg)
[7] = Fisher's PLSD, drug 5 minutes after stress, (R,S)-ketamine 30 mg/kg vs. FENM 20 mg/kg
[8] = non-stressed mice, FENM 20 mg/kg 1 hour before the start of the OF, vs saline

Structure (SMILES): CNC1(c2ccccc2Cl)CCCCC1=O (racemic) [(R,S)-ketamine, reference compound]
- distance travelled in the OF (129S6/SvEv mice; [2]): did not alter
- time spent in the center of the OF arena (129S6/SvEv mice; [2]): did not alter
- distance travelled in the OF (129S6/SvEv mice; [3]): did not alter
- time spent in the center of the OF arena (129S6/SvEv mice; [3]): did not alter
- p, Distance Travelled (cm), OF, Saline vs. drug (129S6/SvEv mice; [4]): 0.9319
- p, Distance Travelled Min 1 (cm), OF, Saline vs. drug (129S6/SvEv mice; [5]): 0.0589
- p, Distance Travelled Min 2 (cm), OF, Saline vs. drug (129S6/SvEv mice; [5]): 0.0098
- p, Distance Travelled Min 3 (cm), OF, Saline vs. drug (129S6/SvEv mice; [5]): 0.1586
- p, Distance Travelled Min 4 (cm), OF, Saline vs. drug (129S6/SvEv mice; [5]): 0.6504
- p, Distance Travelled Min 5 (cm), OF, Saline vs. drug (129S6/SvEv mice; [5]): 0.3454
- p, Distance Travelled Min 6 (cm), OF, Saline vs. drug (129S6/SvEv mice; [5]): 0.7410
- p, Distance Travelled Min 7 (cm), OF, Saline vs. drug (129S6/SvEv mice; [5]): 0.1344
- p, Distance Travelled Min 8 (cm), OF, Saline vs. drug (129S6/SvEv mice; [5]): 0.1467
- p, Distance Travelled Min 9 (cm), OF, Saline vs. drug (129S6/SvEv mice; [5]): 0.0061
- p, Distance Travelled Min 10 (cm), OF, Saline vs. drug (129S6/SvEv mice; [5]): 0.4667
- Open Field, Distance Travelled Min 1 (cm), p (Fisher's LSD) (129S6/SvEv mice; [6]): 0.3306
- Open Field, Distance Travelled Min 2 (cm), p (Fisher's LSD) (129S6/SvEv mice; [6]): 0.5200
- duration of relief of depressive symptoms [1]: up to 3 weeks
- time to relief of depressive symptoms after administration [1]: 2 h
- c-fos expression in the ventral CA3 of the hippocampus (c-fos): significantly increased c-fos expression
- [18F]-FENM colocalization with NMDARs when (R,S)-ketamine was administered (NMDARs): colocalization with NMDARs was lost

Structure (SMILES): NC12CC3CC(C1)CC(CCF)(C3)C2 [FENM, 1-amino-3-fluoroethyl-adamantane]
- distance travelled in the OF (129S6/SvEv mice; [2]): did not alter
- time spent in the center of the OF arena (129S6/SvEv mice; [2]): did not alter
- time spent in the center of the OF (129S6/SvEv mice; 5 min after context re-exposure 1, FENM 20 mg/kg, vs saline): significantly increased
- distance travelled in the OF (129S6/SvEv mice; [3]): did not alter
- time spent in the center of the OF arena (129S6/SvEv mice; [3]): did not alter
- Open Field, Distance Travelled Min 1 (cm), p (Fisher's LSD) (129S6/SvEv mice; (R,S)-ketamine (30 mg/kg) vs. FENM (20 mg/kg)): 0.0129
- p, Distance Travelled (cm), OF, (R,S)-ketamine vs. FENM (129S6/SvEv mice; Fisher's PLSD after RMANOVA, drug 5 minutes after stress, (R,S)-ketamine 30 mg/kg vs. FENM 20 mg/kg, FIG. 3L): 0.8632
- p, Distance Travelled (cm), OF, Saline vs. drug (129S6/SvEv mice; [4]): 0.7967
- p, Distance Travelled Min 1 (cm), OF, (R,S)-ketamine vs. FENM (129S6/SvEv mice; [7]): 0.5911
- p, Distance Travelled Min 2 (cm), OF, (R,S)-ketamine vs. FENM (129S6/SvEv mice; [7]): 0.8997
- p, Distance Travelled Min 3 (cm), OF, (R,S)-ketamine vs. FENM (129S6/SvEv mice; [7]): 0.5565
- p, Distance Travelled Min 4 (cm), OF, (R,S)-ketamine vs. FENM (129S6/SvEv mice; [7]): 0.7043
- p, Distance Travelled Min 5 (cm), OF, (R,S)-ketamine vs. FENM (129S6/SvEv mice; [7]): 0.5847
- p, Distance Travelled Min 6 (cm), OF, (R,S)-ketamine vs. FENM (129S6/SvEv mice; [7]): 0.7385
- p, Distance Travelled Min 7 (cm), OF, (R,S)-ketamine vs. FENM (129S6/SvEv mice; [7]): 0.4416
- p, Distance Travelled Min 8 (cm), OF, (R,S)-ketamine vs. FENM (129S6/SvEv mice; [7]): 0.7658
- p, Distance Travelled Min 9 (cm), OF, (R,S)-ketamine vs. FENM (129S6/SvEv mice; [7]): 0.8899
- p, Distance Travelled Min 10 (cm), OF, (R,S)-ketamine vs. FENM (129S6/SvEv mice; [7]): 0.9456
- p, Distance Travelled Min 1 (cm), OF, Saline vs. drug (129S6/SvEv mice; [5]): 0.0158
- p, Distance Travelled Min 2 (cm), OF, Saline vs. drug (129S6/SvEv mice; [5]): 0.0068
- p, Distance Travelled Min 3 (cm), OF, Saline vs. drug (129S6/SvEv mice; [5]): 0.4093
- p, Distance Travelled Min 4 (cm), OF, Saline vs. drug (129S6/SvEv mice; [5]): 0.4054
- p, Distance Travelled Min 5 (cm), OF, Saline vs. drug (129S6/SvEv mice; [5]): 0.1372
- p, Distance Travelled Min 6 (cm), OF, Saline vs. drug (129S6/SvEv mice; [5]): 0.5067
- p, Distance Travelled Min 7 (cm), OF, Saline vs. drug (129S6/SvEv mice; [5]): 0.4644
- p, Distance Travelled Min 8 (cm), OF, Saline vs. drug (129S6/SvEv mice; [5]): 0.0809
- p, Distance Travelled Min 9 (cm), OF, Saline vs. drug (129S6/SvEv mice; [5]): 0.0040
- p, Distance Travelled Min 10 (cm), OF, Saline vs. drug (129S6/SvEv mice; [5]): 0.5094
- Open Field, Distance Travelled Min 1 (cm), p (Fisher's LSD) (129S6/SvEv mice; Saline vs. FENM (20 mg/kg)): 0.1253
- Open Field, Distance Travelled Min 2 (cm), p (Fisher's LSD) (129S6/SvEv mice; Saline vs. FENM (20 mg/kg)): 0.0385
- distance travelled in the OF (129S6/SvEv mice; [8]): comparable
- time in the center of the OF (129S6/SvEv mice; [8]): comparable
- time in the periphery of the OF (129S6/SvEv mice; [8]): comparable
- p, Distance Travelled (cm), OF, Saline vs. FENM (129S6/SvEv mice; t-test, Baseline, anxiety cohort, FENM 20 mg/kg, FIG. 7C): 0.1878
- p, Time in Center (sec), OF, Saline vs. FENM (129S6/SvEv mice; t-test, Baseline, anxiety cohort, FENM 20 mg/kg, FIG. 7D): 0.1241
- p, Time in Periphery (sec), OF, Saline vs. FENM (129S6/SvEv mice; t-test, Baseline, anxiety cohort, FENM 20 mg/kg, FIG. 7E): 0.1225
- affinity as NMDAR antagonist (NMDAR): lower affinity than (R,S)-ketamine
